# Measured values as given in the supplement of paper PMC11061612.
# What was measured:
# Assay in all cases: combination Emax (second highest fraction inhibited in the dose matrix, 72 h); higher = more inhibition; extreme values may be limits of the assay
# [1] = tested on: NCI-H1568 (Lung Adenocarcinoma)
# In short: (§1)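 Cell lines grown in DMEM/F12 or RPMI with 10% FBS were plated in 1536-well plates and held 24 hours at 37°C, 5% CO2 before 72 hours of exposure to two-drug dose matrices, with DMSO typically at 0.2%. CellTiter-Glo 2.0 luminescence gave viability, which was converted to inhibition. Vehicle wells were set to 0 and blank wells to 1. Combination Emax is the second-highest inhibition in the matrix, and Bliss excess is the observed combination effect minus the expected EA + EB − EA·EB, where EA and EB are the single-agent effects.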
# [2] = tested on: SW1573 (Lung Adenocarcinoma)
# In short: as §1
# [3] = tested on: TGBC1TKB (Biliary Tract Carcinoma)
# In short: as §1
# [4] = tested on: KMRC-20 (Kidney Carcinoma)
# In short: as §1
# MPP-89 (Mesothelioma) = tested on: MPP-89 (Mesothelioma)
# In short: as §1
# [5] = tested on: WSU-NHL (B-Cell Non-Hodgkin's Lymphoma)
# In short: as §1
# NCI-H2052 (Mesothelioma) = tested on: NCI-H2052 (Mesothelioma)
# In short: as §1
# [6] = tested on: BFTC-909 (Kidney Carcinoma)
# In short: as §1
# [7] = tested on: SNU-16 (Gastric Carcinoma)
# In short: as §1
# [8] = tested on: LCLC-97TM1 (Non-Small Cell Lung Carcinoma)
# In short: as §1
# [9] = tested on: Detroit562 (Head and Neck Carcinoma)
# In short: as §1
# [10] = tested on: LS-123 (Colorectal Carcinoma)
# In short: as §1
# [11] = tested on: HH (T-Cell Non-Hodgkin's Lymphoma)
# In short: as §1
# [12] = tested on: CAL-33 (Oral Cavity Carcinoma)
# In short: as §1
# BPH-1 (Non-Cancerous) = tested on: BPH-1 (Non-Cancerous)
# In short: as §1
# KS-1 (Glioblastoma) = tested on: KS-1 (Glioblastoma)
# In short: as §1
# [13] = tested on: OV-56 (Ovarian Carcinoma)
# In short: as §1
# [14] = tested on: KYAE-1 (Esophageal Adenocarcinoma)
# In short: as §1
# [15] = tested on: HeLa (Cervical Carcinoma)
# In short: as §1
# [16] = tested on: SNU-449 (Hepatocellular Carcinoma)
# In short: as §1
Structure (SMILES),combination Emax [1],combination Emax [2],combination Emax [3],combination Emax [4],combination Emax (MPP-89 (Mesothelioma)),combination Emax [5],combination Emax (NCI-H2052 (Mesothelioma)),combination Emax [6],combination Emax [7],combination Emax [8],combination Emax [9],combination Emax [10],combination Emax [11],combination Emax [12],combination Emax (BPH-1 (Non-Cancerous)),combination Emax (KS-1 (Glioblastoma)),combination Emax [13],combination Emax [14],combination Emax [15],combination Emax [16]
"Cc1nc(Nc2ncc(C(=O)Nc3c(C)cccc3Cl)s2)cc(N2CCN(CCO)CC2)n1 [Dasatinib] + CC(=O)Nc1cccc(-n2c(=O)n(C3CC3)c(=O)c3c(Nc4ccc(I)cc4F)n(C)c(=O)c(C)c32)c1 [Trametinib] (first compound max 2 µM, 7x7, partner max 1 µM)",0.668,0.18,0.715,0.57,0.851,0.962,0.558,0.35,0.532,0.904,0.862,0.928,0.216,0.629,0.744,0.641,0.446,0.0573,0.241,0.691
"COc1cc2c(cc1OCCCCCOc1cc3c(cc1OC)C(=O)N1C=C(C)C[C@H]1C=N3)N=C[C@@H]1CC(C)=CN1C2=O [SG3199] + O=C(c1cc(Cc2n[nH]c(=O)c3ccccc23)ccc1F)N1CCN(C(=O)C2CC2)CC1 [Olaparib] (first compound max 0.001 µM, 7x7, partner max 10 µM)",0.191,0.102,0.0857,0.128,0.0885,0.763,0.0807,0.0989,0.363,0.12,0.175,0.187,0,0.143,0.354,0.127,0.131,0.128,0.159,0.0573
"Cc1cc2ncnn2cc1Nc1ncc2c(n1)n(C1CCOCC1)c(=O)n2C [AZD7648] + C[C@@H]1COCCN1C2=NC(=NC(=C2)C3(CC3)[S@](=N)(=O)C)C4=C5C=CNC5=NC=C4 [AZD6738] (first compound max 10 µM, 7x7, partner max 10 µM)",0.499,0.229,0.526,0.425,0.564,1,0.413,0.835,0.984,0.84,0.848,0.619,0.337,0.793,0.429,0.595,0.734,0.204,0.575,0.279
"Cc1cc2ncnn2cc1Nc1ncc2c(n1)n(C1CCOCC1)c(=O)n2C [AZD7648] + O=C(c1cc(Cc2n[nH]c(=O)c3ccccc23)ccc1F)N1CCN(C(=O)C2CC2)CC1 [Olaparib] (first compound max 10 µM, 7x7, partner max 10 µM)",0.212,0.243,0.201,0.282,0.28,0.71,0.308,0.305,0.463,0.199,0.376,0.297,0.22,0.243,0.515,0.162,0.103,0.0816,0.22,0.0839
"C[C@@H](c1ccc2nccn2c1)n1nnc2ncc(-c3cnn(C)c3)nc21 [Savolitinib] + CC1(C)CCC(CN2CCN(c3ccc(C(=O)NS(=O)(=O)c4ccc(NCC5CCOCC5)c([N+](=O)[O-])c4)c(Oc4cnc5[nH]ccc5c4)c3)CC2)=C(c2ccc(Cl)cc2)C1 [Venetoclax] (first compound max 1 µM, 7x7, partner max 1 µM)",0.0767,0.052,0.144,0.148,0.261,0.315,0.121,0.242,0.129,0.0631,0.0649,0.148,0.134,0.154,0.136,0.152,0.158,0.0925,0.147,0.157
"COc1cc2ncnc(Nc3ccc(F)c(Cl)c3)c2cc1OCCCN1CCOCC1 [Gefitinib] + CC(C)n1c(=O)n(C)c2cnc3cc(F)c(-c4ccc(OCCCN5CCCCC5)nc4)cc3c21 [AZD1390] (first compound max 10 µM, 7x7, partner max 0.3 µM)",0.318,0,0.263,0.173,0.112,0.337,0.137,0.184,0.36,0.0902,0.471,0.226,0.221,0.42,0.556,0.0732,0.0799,0.646,0.0627,0.249
"Cc1cc2ncnn2cc1Nc1ncc2c(n1)n(C1CCOCC1)c(=O)n2C [AZD7648] + C=CCn1c(=O)c2cnc(Nc3ccc(N4CCN(C)CC4)cc3)nc2n1-c1cccc(C(C)(C)O)n1 [AZD1775] (first compound max 10 µM, partner max 1 µM)",0.453,0.328,0.335,0.53,0.559,1,0.512,0.619,0.885,0.781,0.704,0.641,0.431,0.864,0.53,0.425,0.307,0.574,0.636,0.333
